± gives the standard deviation of the reports.
| glass transition temperature | SMILES |
| --- | --- |
| 130.00 °C | *Oc1ccc(Oc2ccc(C(=O)c3ccc(NC(=O)CCCCCCCCC(=O)Nc4ccc(C(=O)c5ccc(*)cc5)cc4)cc3)cc2)cc1 (repeat unit) |
| 358.00 °C | *c1ccc2c(c1)C(=O)N(c1ccc(-c3ccc(N4C(=O)c5ccc(C(*)(C(F)(F)F)C(F)(F)F)cc5C4=O)c(O)c3)cc1O)C2=O (repeat unit) |
| 105.00 °C | *c1ccc(Cc2ccc(N3C(=O)C(C)C(SCCOCCSC4C(=O)N(c5ccc(Cc6ccc(N7C(=O)CC(C)(SCCOCCSC8(C)CC(=O)N(*)C8=O)C7=O)cc6)cc5)C(=O)C4C)C3=O)cc2)cc1 (repeat unit) |
| 147.00 °C | *Oc1ccc(CCNC(=O)c2cccc(C(=O)NCCc3ccc(OC(=O)c4cccc(C(*)=O)c4)cc3)c2)cc1 (repeat unit) |
| 275.00 °C | *C(=O)c1ccc2c(c1)C(=O)N(CC1(C)CC(N3C(=O)c4ccc(*)cc4C3=O)CC(C)(C)C1)C2=O (repeat unit) |
| -11.00 °C | *CCCCCCOC(=O)OCCCCCOC(=O)OCCCCCCOc1ccc(Oc2ccc(O*)cc2)cc1 (repeat unit) |
| 207.00 °C | *C(=O)Nc1ccc(Oc2cccc(Oc3ccc(NC(=O)c4ccc5c(c4)C(=O)N(c4cccc(Oc6cccc(Oc7cccc(N8C(=O)c9ccc(*)cc9C8=O)c7)c6C#N)c4)C5=O)cc3)c2)cc1 (repeat unit) |
| 140.00 °C | *CC(*)(C)C(=O)Oc1c(OC)cc(/C=C/c2ccccc2)cc1OC (repeat unit) |
| 135.00 °C | *Oc1ccc(C(c2ccc(OC(*)=S)cc2)C(C)C)cc1 (repeat unit) |
| 198.00 °C | *Nc1cccc2c(NC(=O)c3cc(NC(=O)C(CCSC)N4C(=O)c5ccccc5C4=O)cc(C(*)=O)c3)cccc12 (repeat unit) |
| 21.90 °C | *CCOCCOC(=O)c1ccc(C(=O)O*)cc1 (repeat unit) |
| 305.00 °C | *c1ccc(C(c2ccccc2)c2ccc(N3C(=O)c4ccc(S(=O)(=O)c5ccc6c(c5)C(=O)N(*)C6=O)cc4C3=O)cc2)cc1 (repeat unit) |
| 274.00 °C | *c1ccc([Si](c2ccccc2)(c2ccccc2)c2ccc(-c3nnc(-c4ccc(-c5nnc(*)o5)cc4)o3)cc2)cc1 (repeat unit) |
| 33.00 °C | *c1cc(SCCCCCCCCCCCC)c(*)s1 (repeat unit) |
| 268.00 °C | *C(=O)c1ccc(Oc2ccc(C3(c4ccc(Oc5ccc(C(=O)c6ccc7c(c6)C(=O)N(c6ccc(Cc8ccc(N9C(=O)c%10ccc(*)cc%10C9=O)cc8)cc6)C7=O)cc5)cc4)OC(=O)c4ccccc43)cc2)cc1 (repeat unit) |
| 275.50 °C | *c1ccc(C(=O)c2ccc(-n3nc(-c4ccccc4)c4cc(Oc5ccc6c(-c7ccccc7)nn(*)c(=O)c6c5)ccc4c3=O)cc2)cc1 (repeat unit) |
| 202.00 °C | *c1ccc(Oc2ccc(Oc3ccc(N4C(=O)c5ccc(Oc6ccccc6Oc6ccc7c(c6)C(=O)N(*)C7=O)cc5C4=O)cc3)cc2)cc1 (repeat unit) |
| 110.00 °C | *CC(*)(C)C(=O)Oc1c(Cl)c(Cl)c(Cl)c(Cl)c1Cl (repeat unit) |
| 216.00 °C | *c1ccc(Oc2ccc(-n3nccc3-c3cccc(-c4ccnn4*)c3)cc2)cc1 (repeat unit) |
| 114.00 °C | *CCCCCCCCCCCC(=O)Oc1ccc(C2(c3ccc(OC(=O)c4ccc5c(c4)C(=O)N(*)C5=O)cc3)OC(=O)c3ccccc32)cc1 (repeat unit) |
| 255.00 °C | *c1ccccc1CCc1ccc(N2C(=O)C(=O)N(c3ccc(C)c(N4C(=O)C(=O)N(*)C4=O)c3)C2=O)cc1 (repeat unit) |
| 56.00 °C | *CCCCOc1ccc(OC(=O)c2ccc(C(=O)Oc3ccc(O*)cc3)c(C(=O)OCC=C)c2)cc1 (repeat unit) |
| -9.00 °C | *CC(*)OC(=O)C(F)(F)C(F)(F)C(F)(F)C(F)(F)C(F)(F)F (repeat unit) |
| 45.00 °C | *CCCCOc1ccc(C(=O)OC(=O)c2ccc(O*)cc2)cc1 (repeat unit) |
| 140.50 °C | *Oc1ccc(C(C)(C)c2ccc(OC(*)=S)cc2)cc1 (repeat unit) |
| 92.00 °C | *Oc1c(-c2ccccc2)cc(Cc2cc(-c3ccccc3)c(OC(=O)CCCCCCCCC(*)=O)c(-c3ccccc3)c2)cc1-c1ccccc1 (repeat unit) |

| glass transition temperature | SMILES |
| --- | --- |
| 74.00 °C | *OC(COC(=O)C1=C(C(=O)OCC(COC(=O)C2=C(c3ccccc3)C3C=CC2C3)OC(=O)c2ccc(C(*)=O)cc2)C2C=CC1C2)COC(=O)C1=C(c2ccccc2)C2C=CC1C2 (repeat unit) |
| -69.70 °C | *O[Si](*)(CCCOCCOCCOCCOCCOCCOC)CCCOCCOCCOCCOCCOCCOC (repeat unit) |
| 295.00 °C | *OC(=O)Oc1ccc2c(c1)Oc1cc(*)ccc1C21c2ccccc2-c2ccccc21 (repeat unit) |
| 167.00 °C | *Oc1ccc(-c2ccc(Oc3ccc(C(=O)c4ccc(*)cc4)cc3)cc2)cc1 (repeat unit) |
| 219.00 °C | *c1c(C)cc(C(c2cccnc2)c2cc(C)c(N3C(=O)CC(Nc4ccc(Cc5ccc(NC6CC(=O)N(*)C6=O)cc5)cc4)C3=O)c(C)c2)cc1C (repeat unit) |
| 163.00 °C | */C(=C(/c1ccc(*)cc1)c1ccc(Oc2ccccc2)cc1)c1ccc(Oc2ccccc2)cc1 (repeat unit) |
| 46.00 °C | *CCCCCCCCCCCCNC(=O)CCCCCCCCCCCCCCC(=O)N* (repeat unit) |
| 386.00 °C | *Oc1ccc(Sc2ccc(Oc3ccc4c(=O)n5c6cc(-c7ccc8c(c7)nc7c9ccc(*)c%10cccc(c(=O)n87)c%109)ccc6nc5c5cccc3c45)cc2)cc1 (repeat unit) |
| 101.00 °C | *Oc1ccc(Oc2ccc(Oc3cccc(C(=O)Oc4ccc(OC(=O)c5cccc(*)c5)cc4)c3)cc2)cc1 (repeat unit) |
| 77.00 °C | *CCCCCCc1nc2cc(NC(=O)CCCCCCC(=O)Nc3ccc4oc(*)nc4c3)ccc2o1 (repeat unit) |
| 133.50 °C | *Oc1ccc(Cc2ccc(OC(*)=O)cc2)cc1 (repeat unit) |
| -38.00 °C | *CC(*)c1ccc(COCCOCCCC)cc1 (repeat unit) |
| 266.00 °C | *c1ccc(Oc2ccc(-c3cc(-c4ccccc4)c4cc(Oc5ccc6nc(*)cc(-c7ccccc7)c6c5)ccc4n3)cc2)cc1 (repeat unit) |
| 165.00 °C | *Nc1cc(NC(=O)c2cc(OCCN(C)c3ccc(C#N)cc3)cc(C(*)=O)c2)cc(C(=O)OCCN(C)c2ccc(S(=O)(=O)C(F)(F)C(F)(F)C(F)(F)C(F)(F)C(F)(F)C(F)(F)C(F)(F)C(F)(F)F)cc2)c1 (repeat unit) |
| 340.00 °C | *c1ccc(C2(c3ccc(N4C(=O)C(c5ccccc5)=C(c5ccc(C6=C(c7ccccc7)C(=O)N(*)C6=O)cc5)C4=O)cc3)c3ccccc3-c3ccccc32)cc1 (repeat unit) |
| 152.00 °C | *[Si](*)(C)c1ccc(COCCN(CC)c2ccc(/N=N/c3ccc([N+](=O)[O-])cc3)cc2)cc1 (repeat unit) |
| -36.00 °C | */C=[CH]/[Ge]([*])([c]1ccccc1)[c]1ccccc1 (repeat unit) |
| 244.00 °C | *c1ccc(-c2ccc(-n3c(-c4ccc(Oc5ccc(C(=O)c6cccc(C(=O)c7ccc(Oc8ccc(-c9nc%10ccccc%10n9*)cc8)cc7)c6)cc5)cc4)nc4ccccc43)cc2)cc1 (repeat unit) |
| 225.00 °C | *c1ccc(Oc2cccc(N3C(=O)c4ccc(Oc5ccc6cc(Oc7ccc8c(c7)C(=O)N(*)C8=O)ccc6c5)cc4C3=O)c2)cc1 (repeat unit) |
| -52.50 °C | *CCCOC(=O)CCCCCCC(=O)O* (repeat unit) |
| 217.00 °C | *C(=O)Nc1ccc(Oc2cccc(Oc3ccc(NC(=O)c4ccc5c(c4)C(=O)N(c4ccc(Oc6cccc(Oc7ccc(N8C(=O)c9ccc(*)cc9C8=O)cc7)c6C#N)cc4)C5=O)cc3)c2)cc1 (repeat unit) |
| 239.00 °C | *C1CCC(CC2CCC(N3C(=O)C4C5C=CC(C6C(=O)N(*)C(=O)C56)C4C3=O)CC2)CC1 (repeat unit) |
| -65.00 °C | *O[Si](C)(C)c1ccc([Si](C)(C)O[SiH](*)C)cc1 (repeat unit) |
| 136.00 °C | *CCCCNC(=O)c1ccc(C(=O)N*)c(Sc2ccccc2)c1 (repeat unit) |
| 302.00 °C | *Oc1ccc(C(=O)Nc2ccc(Cc3ccc(NC(=O)c4ccc(Oc5nc(*)nc(Sc6ccccc6)n5)cc4)cc3)cc2)cc1 (repeat unit) |
| -57.00 °C | */C=C/CCCCCCC(Cl)CCCCCC* (repeat unit) |

| SMILES | glass transition temperature |
| --- | --- |
| *Oc1ccc(S(=O)(=O)c2ccc(Oc3ccc(P(=O)(c4ccccc4)c4ccc(*)cc4)cc3)cc2)cc1 (repeat unit) | 231.00 °C |
| *CCCCCCOC(=O)C(CCCCCCCCCCP(=O)(O)O)C(=O)OCCCCCCOc1ccc(-n2on2-c2ccc(O*)cc2)cc1 (repeat unit) | 16.00 °C |
| *O[Si](*)(C)CCCCC (repeat unit) | -112.00 °C |
| *C(F)(F)C(*)(F)OC(F)C(F)F (repeat unit) | 35.00 °C |
| *CC(*)CCCCCC (repeat unit) [Poly(hexylethylene)] | -54.58 ± 0.8 °C |
| */C(F)=C(\F)C(F)(C(*)(F)F)C(F)(F)F (repeat unit) | -3.00 °C |
| *CC(*)c1ccc(Cl)c([N+](=O)[O-])c1 (repeat unit) | 132.90 °C |
| *CCNC(=O)c1ccccc1O* (repeat unit) | 84.00 °C |
| *O[Si](*)(C([2H])([2H])[2H])C([2H])([2H])[2H] (repeat unit) | -125.00 °C |
| *CCC(*)(C)C (repeat unit) | -12.00 °C |
| *CCC(*)(C)c1ccccc1 (repeat unit) | 93.00 °C |
| *OP(=O)(Oc1ccc(*)cc1)OC1CCCCC1 (repeat unit) | 108.00 °C |
| *CC(*)CCCCC (repeat unit) [Poly(pentylethylene)] | -44.33 ± 1.7 °C |
| *CCCCCCOC(=O)C(CCCCP(=O)(O)O)C(=O)OCCCCCCOc1ccc(-n2on2-c2ccc(O*)cc2)cc1 (repeat unit) | 19.00 °C |
